Key:
[1] = biological target: T1, HsOr152 (Harpegnathos saltator, UniProt Z9SO02V7Q0); assay: single-sensillum recording of Drosophila ab2A neurons expressing the receptor; type: cell-based; details: 20 nmol dosed on heated cartridge; with DmOrco; excitatory; solvent (pentane) response subtracted
T1 construct: V subfamily OR; full-length, UAS-HsOr152 (pUASg.attB, attP40) in D. melanogaster ab2A neurons by Orco-GAL4; complex with endogenous DmOrco (D. melanogaster); with Odorant receptor coreceptor (Drosophila melanogaster)
T1 sequence (Z9SO02V7Q0 1-385): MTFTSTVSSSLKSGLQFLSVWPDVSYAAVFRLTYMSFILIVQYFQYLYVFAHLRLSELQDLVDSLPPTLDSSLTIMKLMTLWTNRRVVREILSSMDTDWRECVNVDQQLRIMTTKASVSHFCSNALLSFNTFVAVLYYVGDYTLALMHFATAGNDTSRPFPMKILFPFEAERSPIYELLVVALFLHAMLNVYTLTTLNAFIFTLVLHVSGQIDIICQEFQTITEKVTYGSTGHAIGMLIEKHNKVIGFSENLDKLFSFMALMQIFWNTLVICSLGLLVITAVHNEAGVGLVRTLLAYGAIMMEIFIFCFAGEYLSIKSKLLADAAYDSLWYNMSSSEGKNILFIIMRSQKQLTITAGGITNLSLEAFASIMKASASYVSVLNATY
T1 sequence (Q9VNB5 1-486 partner): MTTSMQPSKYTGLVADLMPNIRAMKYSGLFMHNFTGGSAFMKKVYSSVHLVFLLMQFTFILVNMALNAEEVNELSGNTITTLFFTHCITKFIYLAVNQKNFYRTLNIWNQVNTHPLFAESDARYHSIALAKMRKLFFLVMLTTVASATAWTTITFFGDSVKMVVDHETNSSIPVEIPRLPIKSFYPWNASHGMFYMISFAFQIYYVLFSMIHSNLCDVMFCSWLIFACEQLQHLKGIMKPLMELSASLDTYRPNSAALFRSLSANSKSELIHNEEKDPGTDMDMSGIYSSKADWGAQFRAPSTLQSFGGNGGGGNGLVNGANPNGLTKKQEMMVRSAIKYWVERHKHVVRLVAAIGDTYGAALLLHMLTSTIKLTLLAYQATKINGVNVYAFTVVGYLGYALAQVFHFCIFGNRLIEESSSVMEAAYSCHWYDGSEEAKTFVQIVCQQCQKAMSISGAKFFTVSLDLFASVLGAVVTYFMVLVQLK

[2] = biological target: T2, HsOr115 (Harpegnathos saltator, UniProt Z9I713BLV2); assay: as above; type: cell-based; details: 20 nmol dosed on heated cartridge; with DmOrco; excitatory; solvent (pentane) response subtracted
T2 construct: full-length, UAS-HsOr (pUASg.attB, attP40) in D. melanogaster ab2A neurons by Orco-GAL4; complex with endogenous DmOrco (D. melanogaster); with Odorant receptor coreceptor (Drosophila melanogaster)
T2 sequence (Z9I713BLV2 1-398): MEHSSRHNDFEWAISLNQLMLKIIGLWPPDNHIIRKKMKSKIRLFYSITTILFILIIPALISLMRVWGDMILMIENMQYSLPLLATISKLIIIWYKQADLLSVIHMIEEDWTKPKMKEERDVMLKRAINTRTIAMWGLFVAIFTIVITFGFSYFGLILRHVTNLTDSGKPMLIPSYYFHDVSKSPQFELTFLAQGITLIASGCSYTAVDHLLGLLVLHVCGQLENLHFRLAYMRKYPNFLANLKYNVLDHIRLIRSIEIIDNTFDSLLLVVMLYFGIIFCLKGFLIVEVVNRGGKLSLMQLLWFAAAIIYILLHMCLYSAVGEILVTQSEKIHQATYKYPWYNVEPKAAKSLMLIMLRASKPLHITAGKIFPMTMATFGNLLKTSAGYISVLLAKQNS
T2 sequence (Q9VNB5 1-486 partner): T1 sequence (Q9VNB5 1-486 partner)

| mean response (Δspikes/s) at 20 nmol [1] | response (Δspikes/s) at 20 nmol [2] | Structure (SMILES) |
| --- | --- | --- |
| 87.5 Δspikes/s | – | CCCCCCCCCCCCCCCCCCCCCCCCCCCC [C28, octacosane] |
| – | 33.0 Δspikes/s | CCCCCCCCCCCCCCCCCCCCCCCCCCCCCC [C30] |

Reference: paper PMC13050904, “Sensitivity to cuticular hydrocarbons across the odorant receptor family in the Indian jumping ant, Harpegnathos saltator” (Frontiers in Insect Science, 2026)
